Experimental data published in US10513529B2, “1,2,4-triazolo-[3,4-b]-1,3,4-thiadiazole derivatives” (GALENICA S.A., priority 2016, dated 2019).
“And” between values parts separate entries of the source, which are not always exact repeats. Equal entries are not always repeated.

Assays:
[1] = tested on: A-549 human lung carcinoma cell line; experiment: MTT cytostatic-cytotoxic activity, A-549; assay type: cell-based; settings: for IC50: kills 50% of the cells
[2] = tested on: SKOV-3 human ovarian cancer cell line; experiment: MTT cytostatic-cytotoxic activity, SKOV-3; assay type: cell-based; settings: for IC50: kills 50% of the cells
Method: (§1) SKOV-3 (SKOV-3) (ATCC HTB 77) and OVCAR-3 (ATCC® HTB-161™)
(§2) Human ovarian adenocarcinoma cells, which are grown easily in monolayer culture with epithelial-like morphology. SKOV-3 are resistant to tumor necrosis factor (TNF) and to other cytotoxic drugs such as cisplatin, and adriamycin, while OVCAR-3 are resistant to adriamycin, cisplatin and melphalan. These cell lines express androgens, estrogens and progesterone receptors. When SKOV-3 or OVCAR-3 cells are subcutaneously implanted in nude mice, SCID mice, a moderately differentiated tumor develops, and the resulting model resembles primary ovarian adenocarcinoma in humans.
(§3) All cancer cell lines are stored in a liquid nitrogen tank in 2.5 ml cryovials (Corning-Costar, Cambridge, Mass.). DMSO (dimethylsulfoxide) act as a cryoprotectant and is added to prevent the formation of ice crystals which may lyse the cells. The Cells were grown as monolayer cultures in T-75 flasks (Corning-Costar, Cambridge, Mass.) and maintained at 37° C. in 5% CO2 incubator & 100% relative humidity. The cultures medium used are McCoy's 5a Medium, supplemented with 10% fetal bovine serum (FBS, Gibco) and 1% antibiotics (100 IU/ml penicillin/100 µg/ml streptomycin), sterilized by filtration (Corning-Costar filter, diameter 0.2 μm, RPMI-1640 and 50% RPMI-1640 (Catalog No 30-2001) plus 50% Mammary Epithelial Growth Medium (MEGM), supplemented with 10% fetal bovine serum (FBS, Gibco) and 1% antibiotics (100 IU/ml penicillin/100 μg/ml streptomycin). The passage is performed every 3-4 to days as follows: Cells are washed with sterile PBS (Phosphate buffered saline): 8 g/l NaCl, 0,2 g/l KCl, 1,15 g/l Na2HPO4καl 0,2 g/l KH2PO4. pH:7,4), add 2-3 ml 0.05% trypsin (Gibco 1:250) and 0.02% EDTA to cover the monolayer and incubate the flask at 3TC for 5-10 minutes. Trypsin-EDTA, is used mainly to detach the cells from the flask and prepare a single cell suspension. Finally, the number of cells can be determined by direct counting using a Neubauer chamber and cell viability is determined by staining the cells with trypan blue.
(§4) In the experimental study the in vitro effect of the compound type (I) was evaluated against ovarian cancer cell lines UWB1.289, UWB1.289+BRCA1 Kai SKOV-3.The cells were plated in 96-well plate (MTP) at a density of 1×10^4cells/m1 per well and maintained for 72 h at 3TC in a 5% CO2 incubator and grown as monolayers. The selection of the initial number of cells was made according to the rate of proliferation of the cell line, in order the cells throughout the experiment are in an exponential (log) growth phase. After 24 hours, cells were treated with 1-100 μmol/l of the tested compounds for 48 h. Experiments were carried out using triplicate wells. The viability of cultured cells was estimated by an (3-(4,5-imethylthiazol-2-yl)-2,5-diphenyltetrazolium bromide (MTT) metabolic assay as described previously (Finlay G J, Wilson W R and Baguley B C: Comparison of in vitro activity of cytotoxic drugs towards human carcinoma and leukaemia cell lines. Eur J Cancer Clin Oncol 22: 655-662, 1986; Alley M C, Scudiero D A, Monks A, Hursey M L, Czerwinski M J, Fine D L, et al. Feasibility of drug screening with panels of human tumor cell lines using a microculture tetrazolium assay. Cancer Res 1988; 48:589-601). MTT (Sigma, St Louis, Mo., USA) was dissolved in PBS in a concentration of 5 mg/ml, filter sterilized, and stored at 4° C. MTT (50 μl of stock solution) was added to each culture and incubated for 3 h at 3TC to allow metabolization. Formazan crystals were solubilized by DMSO (100 μl). Absorbance of the converted dye was measured at a wavelength of 540nm on ELISA reader (BioTek, Winooski, Vt., USA).
(§5) GI50: The mean concentration that causes 50% inhibition of cell growth (Growth Inhibition 50%). The calculation of the value is based on the formula: (Tt72x)−(Ct24)/(Ct72)-(Ct24)×100=50
(§6) TGI: The mean concentration that causes 100% inhibition of cell growth (Total Growth Inhibition). […]

[3] = tested on: T-47D human breast cancer cell line; experiment: MTT cytostatic-cytotoxic activity, T-47D; assay type: cell-based; settings: 48 h treatment; for IC50: kills 50% of the cells
[4] = tested on: PC-3 human hormone-resistant prostate cancer cell line; experiment: MTT cytostatic-cytotoxic activity, PC-3; assay type: cell-based; settings: PC-3, 48 h treatment; for IC50: kills 50% of the cells
[5] = tested on: MOLT-4 human acute T-leukemia cell line; experiment: MTT cytostatic-cytotoxic activity, MOLT-4; assay type: cell-based; settings: MOLT-4, 48 h treatment; for IC50: kills 50% of the cells
[6] = tested on: UWB1.289 human ovarian cancer cell line (mutant BRCA1); experiment: MTT cytostatic-cytotoxic activity, UWB1.289; assay type: cell-based; settings: for IC50: kills 50% of the cells
Method: Also, UWB1.289 cells have mutated the p53 tumor suppressor gene and positive Wilms' tumor protein (WT) expression, have no functional BRCA1 gene and are positive for the expression of cytokeratin 7 (CK-7), calretinin and Wilms' tumor protein (WT). Finally they are sensitive to ionizing radiation.
as §3, §4, §5
(§7) TGI: The mean concentration that causes 100% inhibition of cell growth (Total Growth Inhibition). The value is calculated according to the formula: (Tt72x)−(Ct24)/(Ct72)−(Ct24)×100=0
(§8) IC50: The mean concentration that kills 50% of the cells (Inhibition Concentration 50%). The value is calculated according to the formula: (Tt72x)−(Ct24)/(Ct24)×100=[…]

[7] = tested on: UWB1.289 + BRCA1 human ovarian cancer cell line; experiment: MTT cytostatic-cytotoxic activity, UWB1.289+BRCA1; assay type: cell-based; settings: for IC50: kills 50% of the cells
Method: Human ovarian adenocarcinoma cells, derived from UBWB1,289, in which the presence of the BRCA1 gene has been restored. […] They are not susceptible to ionizing radiation and radioimmune chemical agents (e.g., alkylating agents). Also, UWB1.289 cells have mutated the p53 tumor suppressor gene, and are positive for the expression of cytokeratin 7 (CK-7), calretinin and Wilms' tumor protein (WT).
as §3, §4, §5, §7, §8

[8] = tested on: OVCAR-3 human ovarian cancer cell line; experiment: MTT cytostatic-cytotoxic activity, OVCAR-3; assay type: cell-based; settings: OVCAR-3, 48 h treatment; for IC50: kills 50% of the cells
Method: as §1, §2, §3, §4, §5, §6

C57BI/6 mice = experiment: in vivo; settings: i.p., acute toxicity
Method: The acute toxicity of the compounds was assessed from lethality by testing different concentrations, starting at 100mg/kg. […] For intraperitoneal (i.p.) treatment, stock solutions of the tested compounds were prepared immediately before use. They were suspended in corn oil in the desired concentration following initial dissolution in 10% dimethylsulfoxide (DMSO). C57BI/6 male and female were used for toxicity studies. Mice were kept under conditions of constant temperature and humidity in sterile cages with water and food.

[9] = tested on: MCF-7 human breast cancer cell line; experiment: MTT cytostatic-cytotoxic activity, MCF-7; assay type: cell-based; settings: for IC50: kills 50% of the cells
[10] = Homo sapiens, A549, A-549, 48 h treatment
[11] = Homo sapiens, SK-OV-3, SKOV-3, 48 h treatment
[12] = Homo sapiens, UWB1289, UWB1.289+BRCA1, 48 h treatment

Compound | GI50 ([1]; A-549, 48 h treatment) [µM] | TGI ([1]; A-549, 48 h treatment) [µM] | IC50 ([1]; A-549, 48 h treatment) [µM] | GI50 ([2]; SKOV-3, 48 h treatment) [µM] | TGI ([2]; SKOV-3, 48 h treatment) [µM] | IC50 ([2]; SKOV-3, 48 h treatment) [µM] | GI50 [3] [µM] | TGI [3] | IC50 [3] [µM] | GI50 [4] [µM] | TGI [4] [µM] | IC50 [4] [µM] | GI50 [5] [µM] | TGI [5] [µM] | IC50 [5] [µM] | GI50 ([6]; UWB1.289, 48 h treatment) [µM] | TGI ([6]; UWB1.289, 48 h treatment) [µM] | TGI ([7]; UWB1.289+BRCA1, 48 h treatment) [µM] | TGI [8] [µM] | TGI ([9]; MCF-7, 48 h treatment) | also measured
COc1cc(Cc2nnc3sc(-c4ccccn4)nn23)c(S(=O)(=O)N(C)C)cc1OC [TS66] | > 100 | >100 | > 100 | 20 | >100 | > 100 | > 100 | >100 µM | > 100 | > 100 | >100 | > 100 | 85 | >100 | > 100 | > 100 | >100 | >100 | >100 | >100 µM | IC50 ([6]; UWB1.289, 48 h treatment): > 100 µM; GI50 ([7]; UWB1.289+BRCA1, 48 h treatment): > 100 µM; IC50 ([7]; UWB1.289+BRCA1, 48 h treatment): > 100 µM; GI50 [8]: 24 µM; IC50 [8]: > 100 µM; LD10 (C57BI/6 mice): >500 mg/kg; LD50 (C57BI/6 mice): >500 mg/kg; GI50 ([9]; MCF-7, 48 h treatment): > 100 µM; IC50 ([9]; MCF-7, 48 h treatment): > 100 µM
COc1cc(Cc2nnc3sc(CC=Cc4ccccc4)nn23)c(S(=O)(=O)N(C)C)cc1OC [TS53, 3-[2-(N,N-dimethylsulfamoyl)-4,5-dimethoxybenzyl]-6-cinnamyl-1,2,4-triazolo[3,4-b]-1,3,4-thiazole] | 9 | 24 | 58 | 8 | 16 | 32 | 8 | 37 µM | > 100 | 12 | 31 | 85 | 4 | 21 | 36 | 12 | 56 | 28 | 12 | 45 µM | IC50 ([6]; UWB1.289, 48 h treatment): > 100 µM; GI50 ([7]; UWB1.289+BRCA1, 48 h treatment): 12 µM; IC50 ([7]; UWB1.289+BRCA1, 48 h treatment): 42 µM; GI50 [8]: 5 µM; IC50 [8]: 25 µM; LD10 (C57BI/6 mice): >500 mg/kg; LD50 (C57BI/6 mice): 375 mg/kg; GI50 ([9]; MCF-7, 48 h treatment): 15 µM; IC50 ([9]; MCF-7, 48 h treatment): > 100 µM
COc1cc(Cc2nnc3sc(-c4cccc(Cl)c4)nn23)c(S(=O)(=O)N(C)C)cc1OC [TS22, 3-[2-(N,N-dimethylsulfamoyl)-4,5-dimethoxybenzyl]-6-(3-chlorophenyl)-1,2,4-triazolo[3,4-b]-1,3,4-thiazole] |  | 95 |  |  | 100 |  | 60 | 97 µM and 100 µM |  |  | >100 |  |  | >100 |  |  | >100 | >100 | >100 | 90 µM and >100 µM | GI50 [1, 10]: 45 µM; IC50 [1, 10]: > 100 µM; GI50 [2, 11]: 60 µM; IC50 [2, 11]: > 100 µM; GI50 ([3]; Homo sapiens, T47D, 48 h): 48 µM; IC50 ([3]; Homo sapiens, T47D): > 100 µM; GI50 ([4]; Homo sapiens): > 100 µM; IC50 ([4]; Homo sapiens): > 100 µM; melting point: 237 to 239 °C; GI50 ([5]; Homo sapiens): 72 µM; IC50 ([5]; Homo sapiens): > 100 µM; IC50 ([6]; Homo sapiens, UWB1289, UWB1.289, 48 h treatment): > 100 µM; GI50 [7, 12]: 16 µM; IC50 [7, 12]: > 100 µM; GI50 ([8]; Homo sapiens): 90 µM; IC50 ([8]; Homo sapiens): > 100 µM; IC50 ([9]; Homo sapiens, MCF7, MCF-7, 48 h treatment): > 100 µM
